# Legend:
# [1] = Fluorescence lifetimes in solvents, two-photon excitation with TCSPC; type: physicochemical; settings: for Fluorescence lifetime τ: 20° C., two-photon excitation 620-630 nm
# Protocol: Fluorescence lifetimes were determined using 2PE at 630 nm with the microscope TCSPC setup (overall time response of 25 ps fwhm) and produced the results shown in Table 1. […] Characterisation of the spectroscopic properties of these latter two compounds remains to be investigated further. […] In the very viscous environment provided by glycerol the lifetime increases further to 1180 ps. In the range of alkanols studied the lifetime is closely correlated with solvent viscosity as shown in the inset to FIG. 3. […] However it is clear that the measured lifetime has the potential to report on cellular environments in FLIM studies. For E-CA4F similar trends are observed, but the overall differences in both lifetimes and quantum yields over the range of solvents are rather less than for E-CA4. The fluorescence lifetimes of E-CA4F are confined to a narrower range having values ranging from 440 ps in methanol through 740 ps in hexane to 1070 ps in glycerol. The more pronounced solvent dependence for E-CA4 no doubt reflects the more polar nature of the molecule compared with E-CA4F. The relative polarities may be judged from the partition coefficients (P) calculated according to the method of Brown et al..
# [2] = Two-photon absorption cross section using reference fluorophore 9-chloroanthracene; type: physicochemical; settings: at 620 nm, DCM
# Excerpt: Cell images were overlaid using Adobe Photoshop CS3.
# Published cross sections for two photon absorption (σ2, the probability of an absorption process or photon interaction) typically show large variations depending on the method of measurement, using either the Z-scan method or a reference fluorophore, and the power range and pulse duration of the laser used for excitation. We have attempted to determine values of σ2 for E-CA4 and E-ACA4 using a reference fluorophore. 9-Chloroanthracene (9CIA) was selected as a standard fluorophore with an appropriate fluorescence spectrum and for which 2PE cross-sections are available. The values of σ2 at 620 nm for E-CA4 and E-CA4F in DCM were determined to be 2.1±0.5 and 2.75±0.6 GM units respectively. […] Values of σ2 at 620 nm for E-ACA and E-DMAC were both 5.7±1.2. These larger values may be consistent with some charge transfer character of the excitation of these compounds.
# [3] = Picosecond time-resolved infrared (TRIR) spectroscopy of excited states; type: physicochemical
# Protocol: The ultrafast time-resolved infrared (TRIR) experiments were performed on the ‘ULTRA’ laser system at the Science and Technology Facilities Council Rutherford Appleton Laboratory. The capabilities of the ULTRA instrument are described in detail elsewhere. Briefly, a chirped pulse amplified titanium:sapphire laser operating at 10 kHz repetition rate produced 40-80 fs duration pulses at a wavelength of 800 nm. The UV excitation pulse was generated from third harmonic generation of the 800 nm output of the amplifier with ˜50 fs duration at 266 nm, irradiating samples with a 1 μJ, 100 μm diameter beam. The mid-IR probe pulse was generated using ˜0.4 mJ of the 800 nm femtosecond output to pump an optical parametric amplifier, and difference frequency mixing of the signal and idler components. The mid-IR probe output pulses had ˜500 cm-1 bandwidth and ˜50 fs pulse duration. The UV pulses were polarized at a magic angle to the IR probe laser polarization. The timing between the pump and probe was performed using a PCcontrolled optical delay line. The sample in solution was placed between two 25 mm diameter CaF2 plates in a rasterscanned Harrick cell to limit irradiation of the sample by multiple pulses. The optical path of the sample between the two windows was controlled using a 100 μm PTFE spacer and the solution flowed using a peristaltic pump. The intensity of the transmitted mid-IR light was dispersed by a grating onto a pair of 128-element mercury-cadmium telluride array detectors (IR Associates), providing full (i.e. ˜500 cm-1) spectral coverage with every laser pulse. The overall instrument response time was ˜200 fs. A reference spectrum of the laser pulse (before the Harrick cell) was accumulated on a third, 64-element array detector and was used to remove the effects of laser fluctuations from the transient absorption data. Ground-state FTIR spectra were recorded using a Nicolet Avatar 360 spectrometer.
# FIGS. 12 and 13 show the TRIR spectra of both isomers of CA4 following ultrafast electronic excitation using 266 nm, with the ground-state FTIR spectra shown beneath the time resolved data for comparison. To date there has been little characterization of combretastatins by infrared spectroscopy. However, the ground-state FTIR spectra have obvious similarities with stilbene and on this basis we assign the 1586/1581 and 1510/1509 cm-1 bands in E-CA4/Z-CA4 to the v8a ring stretches of the phenyl groups and v19a ring stretch with additional contributions from C—H in-plane bending. In the excited state spectra, there are negative absorption bands corresponding to bleaching of the ground-state absorptions and both the E- and Z-isomers are dominated by transient bands between 1350 and 1500 cm-1. At early times the transient bands show rapid shifting over about 10 cm-1 to higher wavenumbers associated with rapid ‘cooling’ of excess vibrational energy following electronic excitation as commonly observed in other molecular systems including DNA [26] and for the C═C stretching band of E-stilbene observed by time-resolved resonance Raman spectroscopy. It is also notable that for E-CA4 at pump-probe delays up to 20 ps, the intensities of the transient bands increase and this is most likely due to molecular rearrangements taking place lowering the overall symmetry of the molecule and increasing the cross-sections of these IR active modes. […]
# cells = settings: typical toxicity assays; cited from earlier work
# [4] = dichloromethane, 266 nm excitation
smiles,measurement,setting,value
"COc1ccc(/C=C/c2cc(OC)c(OC)c(OC)c2)cc1O [E-CA4, (E)-1-(3′,4′,5′-Trimethoxyphenyl)-2-(4″-methoxy-3″-hydroxy-phenyl)ethene]",Fluorescence lifetime τ,"[1]; DCM, ne = non-exponential",0.50 ns
same,Fluorescence lifetime τ,[1]; DMSO,0.49 ns
same,Fluorescence lifetime τ,"[1]; EtOH, ne = non-exponential",0.28 ns
same,Fluorescence lifetime τ,"[1]; Ethylene glycol, ne = non-exponential",0.58 ns
same,Fluorescence lifetime τ,"[1]; Glycerol, ne = non-exponential",1.18 ns
same,Fluorescence lifetime τ,[1]; Hexane,0.86 ns
same,Fluorescence lifetime τ,"[1]; MeCN, ne = non-exponential",0.29 ns
same,Fluorescence lifetime τ,"[1]; MeOH, ne = non-exponential",0.23 ns
same,Fluorescence lifetime,[1]; acetonitrile,around 220 ps
same,Fluorescence lifetime,"[1]; as shown in FIG. 10, compared with TRIR in dichloromethane",500 ps
same,Fluorescence lifetime,[1]; glycerol,1180 ps
same,Fluorescence lifetime,[1]; hexane,855 ps
same,Two photon absorption cross section σ2,[2],2.1±0.5 GM units
same,"Excited state decay, longer lifetime (relaxed excited state)",[3]; [4],503±56 ps
same,"Excited state decay, shorter lifetime (biexponential fit)",[3]; [4],6.5±0.46 ps
same,Lifetime of the relaxed excited state measured by TRIR,[3]; methanol,230±14 ps
same,Concentrations required to kill cells,cells,micromolar

# Source: patent US20150359884A1, “MULTI-PHOTON ISOMERISATION OF COMBRETASTATINS AND THEIR USE IN THERAPY” (priority 2011, published 2015)
